# Test results: patent publication US20230148599A1, “FUNGICIDAL MIXTURES CONTAINING PYRAZOLE DERIVATIVES” (FMC Corporation, priority 2020, published 2023)
# What was measured:
# Assay type in all cases: in vivo
# Conditions in all cases: 50 ppm, 100 = 100% disease control, 0 = no control
# [1] = test system: Puccinia recondita f. sp. tritici; test: Test B: wheat leaf rust, preventive spray on wheat seedlings
# Procedure, shortened: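 Wheat seedlings were sprayed to run-off with compound suspended at ppm concentrations in acetone/water containing 250 ppm PEG400. The next day they were inoculated with Puccinia recondita f. sp. tritici spores, held saturated at 20 °C for 24 h, then kept 7 days at 20 °C. Disease control was rated 0–100% relative to untreated controls.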
# [2] = test system: Blumeria graminis f. sp. tritici; test: Test C: wheat powdery mildew, preventive spray on wheat seedlings
# Procedure, shortened: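 Seedlings were sprayed to run-off with compound suspended (ppm) in 50/50 acetone–water containing 250 ppm PEG400, then spore-dust inoculated the following day. After 8 days at 20° C, disease control was rated visually from 0 to 100 against controls.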
# Septoria tritici = test: Test A: wheat leaf blotch, preventive spray on wheat seedlings
# Procedure, shortened: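 Wheat seedlings sprayed to run-off with compound suspended in acetone/water with 250 ppm PEG400 surfactant, inoculated next day with Septoria tritici spores. Held 48 h saturated at 24 °C, then 17 days at 20 °C; disease rated 0–100% control relative to controls.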
# Phakopsora pachyrhizi = test: Test D: Asian soybean rust, preventive spray on soybean seedlings
# Procedure, shortened: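 Compounds in acetone/water (50/50) with 250 ppm PEG400, dosed in ppm, sprayed to run-off on soybean seedlings; inoculated with P. pachyrhizi spores next day. Held 24 h at 22 °C in saturated air, then 8 days at 22 °C; visual rating of disease control, 0–100, relative to untreated controls.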
# Botrytis cinerea = test: Test E: tomato Botrytis, preventive spray on tomato seedlings
# Procedure, shortened: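 Compound suspended in 50/50 acetone/water with 250 ppm PEG400 surfactant and sprayed to run-off on tomato seedlings; Botrytis cinerea spores applied the next day. Incubation 48 h at 20° C in saturated atmosphere, then 3 days at 24° C. Visual rating 0–100% disease control relative to controls.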
# Alternaria solani = test: Test F: tomato early blight, preventive spray on tomato seedlings
# Procedure, shortened: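 Tomato seedlings were sprayed to run-off with compound suspended in acetone/water (50/50) with 250 ppm PEG400 and inoculated with Alternaria solani spores the next day. Plants were held 48 h at 27 °C in saturated humidity, then 3 days at 20 °C. Disease control was rated visually from 0 to 100 against untreated controls.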
SMILES,Test B disease control rating [1] [%],Test C disease control rating [2] [%],Test A disease control rating (Septoria tritici) [%],Test D disease control rating (Phakopsora pachyrhizi) [%],Test E disease control rating (Botrytis cinerea) [%],Test F disease control rating (Alternaria solani) [%]
Cc1nn(C)c(Nc2ccccc2[N+](=O)[O-])c1-c1c(F)cccc1F [compound 135],68,93,100,0,99,0
Cc1nn(C)c(Nc2ccccc2[N+](=O)[O-])c1-c1c(F)cccc1Cl [compound 136],80,88,100,0,99,0
CCc1nn(C)c(Nc2c(F)cc(C)cc2[N+](=O)[O-])c1-c1ccc(F)cc1Cl [compound 137],100,100,100,91,99,99
COc1cc(F)c(Nc2c(-c3ccc(Cl)cc3Cl)c(C)nn2C)c([N+](=O)[O-])c1 [compound 138],100,93,100,67,99,100
Cc1nn(C)c(Nc2ccccc2[N+](=O)[O-])c1-c1ccc(F)cc1Br [compound 139],86,76,98,0,100,33
COc1ccc(-c2c(C)nn(C)c2Nc2ccccc2[N+](=O)[O-])c(Cl)c1 [compound 140],86,31,99,0,100,93
COc1cc(Cl)c(Nc2c(-c3ccc(F)cc3F)c(C)nn2C)c([N+](=O)[O-])c1 [compound 141],100,99,99,0,99,83
COc1ccc(Nc2c(-c3ccc(Cl)cc3Cl)c(C)nn2C)c([N+](=O)[O-])c1 [compound 142],91,39,100,25,99,80
Cc1cc(F)c(Nc2c(-c3ccc(Cl)cc3Cl)c(C)nn2C)c([N+](=O)[O-])c1 [compound 143],100,96,99,87,99,100
Cc1cccc([N+](=O)[O-])c1Nc1c(-c2ccc(Cl)cc2Cl)c(C)nn1C [compound 144],68,35,100,69,0,0
Cc1cc(Cl)c(Nc2c(-c3ccc(Cl)cc3Cl)c(C)nn2C)c([N+](=O)[O-])c1 [compound 145],92,52,98,0,85,24
Cc1nn(C)c(Nc2c(Cl)cc(Cl)cc2[N+](=O)[O-])c1-c1ccc(Cl)cc1Cl [compound 146],98,0,97,0,0,40
